Assays:
Test in all cases: Multigene assay (QuantiGene Plex 2.0), mouse MEF cell line
Type in all cases: cell-based
Settings in all cases: 6 hours post-compound treatment
DDIT3 = test system: DDIT3
Description: (§1) This assay used the QuantiGene Plex 2.0 Reagent System from Affymetrix. This assay combines the use of bDNA (branch DNA) and xMAP magnetic capture beads from Luminex Technologies to quantitatively and simultaneously detect multiple mRNA transcripts per well. The overall procedure was performed according to the QuantiGene Plex 2.0 Reagent System instruction manual from Affymetrix.
(§2) Cells were seeded at a density of 12,000 cells/well in 96-well plates with an overnight incubation at 37° C., 5% CO2. Cells were treated with serially diluted compounds in a 7-point dose dependent manner. Cell lysis with 50% [v/v] Panomics Lysis Mixture (Lysis Mixture+10 μl/ml 25 Proteinase K) was performed 6 hours post-compound treatment. Lysed cells were heated at 50° C. to ensure appropriate lysing and the plates were then frozen at −80° C. Cell lysates, thawed at room temperature on the day of the assay, were pooled with mouse 8-gene multiplex probe sets and with 8 different sets of magnetic capture beads (Luminex Technology, Austin, Tex.) in a 100 μl/well volume. Biomek FX was used at every liquid transfer step. The eight plates containing lysate-probe-bead mixtures were incubated at 54° C.±1° C. on a shaking platform for an overnight incubation in the dark (18-20 hours). The following day the hybridization plates were compressed by transferring the hybridized lysates into a single magnetic capture plate. The plate was kept on a magnet to hold the beads and then washed with Panomics Wash Buffer 2.0 on a BioTek ELx405 select plate washer to remove any unbound sample. This step was followed by serial hybridizations and washings of the bDNA pre-amplifier (1 hour, 50° C.), bDNA amplifier (1 hour, 50° C.), label probe (1 hour, 50° C.), and streptavidin-phycoerythrin (SAPE, 30 minutes, room temperature). (Zhang, A. et al. Small interfering RNA and gene expression analysis using a multiplex branched DNA assay without RNA purification. J Biomol Screen 10, 549-56 (2005)). The plate was then washed with SAPE wash buffer to remove unbound SAPE and each well was analyzed with the Luminex FlexMap3D (Luminex, Austin, Tex.). SAPE fluorescence measured from each bead was proportional to the number of mRNA transcripts captured by the beads (Zheng, Z., Luo, Y. & McMaster, G. K. Sensitive and quantitative measurement of gene expression directly from a small amount of whole blood. Clin Chem 52, 1294-302 (2006)). Fold changes in gene expression were obtained for each gene per well by normalizing the raw data first to the DMSO control and then to a housekeeping gene (TBP-TATA binding protein or Tub1-alpha-tubulin).

BCL2 = test system: BCL2
Description: as §1, §2

HMOX = test system: HMOX
Description: as §1, §2

GCLM = test system: GCLM
Description: as §1, §2

TUB1 = test system: TUB1
Description: as §1, §2

HspA5 = test system: HspA5
Description: as §1, §2

HSPA1a = test system: HSPA1a
Description: as §1, §2

N#CC1=C(N)Oc2[nH]nc(C34CC5CC(CC(C5)C3)C4)c2C1c1cccs1 (stereo not drawn) [drawing 29/1-Adamantyl/H/H/S]
DDIT3 gene induction (DDIT3; Table 4a): − (− Indicates less than 2 fold induction)
BCL2 gene induction (BCL2; Table 4b): − (− Indicates less than 2 fold induction)
HMOX gene induction (HMOX; Table 4b): + (+ indicates a induction of greater than 2 fold)
GCLM gene induction (GCLM; Table 4a): + (+ indicates a induction of greater than 2 fold)
TUB1 gene induction (TUB1; Table 4a): − (− Indicates less than 2 fold induction)
HspA5 gene induction (HspA5; Table 4b): − (− Indicates less than 2 fold induction)
HSPA1a gene induction (HSPA1a; Table 4b): − (− Indicates less than 2 fold induction)

COCC1=C(C(=O)OCC(C)C)C(c2ccc(F)cc2)C2=C(CC(c3cccs3)CC2=O)N1 (stereo not drawn) [drawing 26/CH2OMe/COOCH2CHMe2/p-F]
DDIT3 gene induction (DDIT3; Table 1a): + (+ indicates a induction of greater than 2 fold)
BCL2 gene induction (BCL2; Table 1b): − (− Indicates less than 2 fold induction)
HMOX gene induction (HMOX; Table 1b): + (+ indicates a induction of greater than 2 fold)
GCLM gene induction (GCLM; Table 1a): − (− Indicates less than 2 fold induction)
TUB1 gene induction (TUB1; Table 1a): − (− Indicates less than 2 fold induction)
HspA5 gene induction (HspA5; Table 1b): − (− Indicates less than 2 fold induction)
HSPA1a gene induction (HSPA1a; Table 1b): − (− Indicates less than 2 fold induction)

Cc1ccsc1C1C(C#N)=C(N)Oc2[nH]nc(C(C)(C)C)c21 (stereo not drawn) [drawing 29/CMe3/H/Me/S]
DDIT3 gene induction (DDIT3; Table 4a): − (− Indicates less than 2 fold induction)
BCL2 gene induction (BCL2; Table 4b): − (− Indicates less than 2 fold induction)
HMOX gene induction (HMOX; Table 4b): + (+ indicates a induction of greater than 2 fold)
GCLM gene induction (GCLM; Table 4a): + (+ indicates a induction of greater than 2 fold)
TUB1 gene induction (TUB1; Table 4a): − (− Indicates less than 2 fold induction)
HspA5 gene induction (HspA5; Table 4b): − (− Indicates less than 2 fold induction)
HSPA1a gene induction (HSPA1a; Table 4b): − (− Indicates less than 2 fold induction)

CCn1c2c(c(=O)[nH]c1=O)C(c1cccc3ccccc13)C1=C(N2)c2ccccc2C1=O (stereo not drawn) [B]
DDIT3 gene induction (DDIT3; Table 6): + (+ indicates a induction of greater than 2 fold)
BCL2 gene induction (BCL2; Table 6): — (— Indicates less than 2 fold induction)
HMOX gene induction (HMOX; Table 6): + (+ indicates a induction of greater than 2 fold)
GCLM gene induction (GCLM; Table 6): — (— Indicates less than 2 fold induction)
TUB1 gene induction (TUB1; Table 6): — (— Indicates less than 2 fold induction)
HspA5 gene induction (HspA5; Table 6): — (— Indicates less than 2 fold induction)
HSPA1a gene induction (HSPA1a; Table 6): + (+ indicates a induction of greater than 2 fold)

CCCc1n[nH]c2c1C(c1ccc(C)o1)C(C#N)=C(N)O2 (stereo not drawn) [drawing 29/(CH2)2Me/Me/H/O]
DDIT3 gene induction (DDIT3; Table 4a): − (− Indicates less than 2 fold induction)
BCL2 gene induction (BCL2; Table 4b): − (− Indicates less than 2 fold induction)
HMOX gene induction (HMOX; Table 4b): + (+ indicates a induction of greater than 2 fold)
GCLM gene induction (GCLM; Table 4a): + (+ indicates a induction of greater than 2 fold)
TUB1 gene induction (TUB1; Table 4a): − (− Indicates less than 2 fold induction)
HspA5 gene induction (HspA5; Table 4b): − (− Indicates less than 2 fold induction)
HSPA1a gene induction (HSPA1a; Table 4b): − (− Indicates less than 2 fold induction)

COc1ccccc1C1C(C#N)=C(C)NC2=C1C(=O)CC(c1ccccc1)C2 (stereo not drawn) [drawing 27/Me/CN/o-OMe/H]
DDIT3 gene induction (DDIT3; Table 2a): − (− Indicates less than 2 fold induction)
BCL2 gene induction (BCL2; Table 2b): − (− Indicates less than 2 fold induction)
HMOX gene induction (HMOX; Table 2b): − (− Indicates less than 2 fold induction)
GCLM gene induction (GCLM; Table 2a): − (− Indicates less than 2 fold induction)
TUB1 gene induction (TUB1; Table 2a): − (− Indicates less than 2 fold induction)
HspA5 gene induction (HspA5; Table 2b): − (− Indicates less than 2 fold induction)
HSPA1a gene induction (HSPA1a; Table 2b): + (+ indicates a induction of greater than 2 fold)

COCc1n[nH]c2c1C(c1cccs1)C(C#N)=C(N)O2 (stereo not drawn) [drawing 29/CH2OMe/H/H/S]
DDIT3 gene induction (DDIT3; Table 4a): − (− Indicates less than 2 fold induction)
BCL2 gene induction (BCL2; Table 4b): − (− Indicates less than 2 fold induction)
HMOX gene induction (HMOX; Table 4b): + (+ indicates a induction of greater than 2 fold)
GCLM gene induction (GCLM; Table 4a): + (+ indicates a induction of greater than 2 fold)
TUB1 gene induction (TUB1; Table 4a): − (− Indicates less than 2 fold induction)
HspA5 gene induction (HspA5; Table 4b): − (− Indicates less than 2 fold induction)
HSPA1a gene induction (HSPA1a; Table 4b): − (− Indicates less than 2 fold induction)

CCCc1n[nH]c2c1C(C1CC=CCC1)C(C#N)=C(N)O2 (stereo not drawn)
DDIT3 gene induction (DDIT3; Table 5): — (— Indicates less than 2 fold induction)
BCL2 gene induction (BCL2; Table 5): — (— Indicates less than 2 fold induction)
HMOX gene induction (HMOX; Table 5): + (+ indicates a induction of greater than 2 fold)
GCLM gene induction (GCLM; Table 5): + (+ indicates a induction of greater than 2 fold)
TUB1 gene induction (TUB1; Table 5): — (— Indicates less than 2 fold induction)
HspA5 gene induction (HspA5; Table 5): — (— Indicates less than 2 fold induction)
HSPA1a gene induction (HSPA1a; Table 5): — (— Indicates less than 2 fold induction)

Cc1n[nH]c2c1C(c1cccs1)C(C#N)=C(N)O2 (stereo not drawn) [drawing 29/Me/H/H/S]
DDIT3 gene induction (DDIT3; Table 4a): − (− Indicates less than 2 fold induction)
BCL2 gene induction (BCL2; Table 4b): − (− Indicates less than 2 fold induction)
HMOX gene induction (HMOX; Table 4b): + (+ indicates a induction of greater than 2 fold)
GCLM gene induction (GCLM; Table 4a): + (+ indicates a induction of greater than 2 fold)
TUB1 gene induction (TUB1; Table 4a): − (− Indicates less than 2 fold induction)
HspA5 gene induction (HspA5; Table 4b): − (− Indicates less than 2 fold induction)
HSPA1a gene induction (HSPA1a; Table 4b): − (− Indicates less than 2 fold induction)

CC1=C(C(=O)OCC(C)C)C(c2ccccc2OC(C)C)C2=C(CC(c3ccccc3)CC2=O)N1 (stereo not drawn) [drawing 27/Me/COOCH2CHMe2/o-OCHMe2/H]
DDIT3 gene induction (DDIT3; Table 2a): + (+ indicates a induction of greater than 2 fold)
BCL2 gene induction (BCL2; Table 2b): − (− Indicates less than 2 fold induction)
HMOX gene induction (HMOX; Table 2b): − (− Indicates less than 2 fold induction)
GCLM gene induction (GCLM; Table 2a): − (− Indicates less than 2 fold induction)
TUB1 gene induction (TUB1; Table 2a): − (− Indicates less than 2 fold induction)
HspA5 gene induction (HspA5; Table 2b): − (− Indicates less than 2 fold induction)
HSPA1a gene induction (HSPA1a; Table 2b): − (− Indicates less than 2 fold induction)

CC(C)(C)c1n[nH]c2c1C(c1cccs1)C(C#N)=C(N)O2 (stereo not drawn) [drawing 29/CMe3/H/H/S]
DDIT3 gene induction (DDIT3; Table 4a): − (− Indicates less than 2 fold induction)
BCL2 gene induction (BCL2; Table 4b): − (− Indicates less than 2 fold induction)
HMOX gene induction (HMOX; Table 4b): + (+ indicates a induction of greater than 2 fold)
GCLM gene induction (GCLM; Table 4a): + (+ indicates a induction of greater than 2 fold)
TUB1 gene induction (TUB1; Table 4a): − (− Indicates less than 2 fold induction)
HspA5 gene induction (HspA5; Table 4b): − (− Indicates less than 2 fold induction)
HSPA1a gene induction (HSPA1a; Table 4b): − (− Indicates less than 2 fold induction)

N#CC1=C(N)Oc2[nH]nc(-c3ccccn3)c2C1c1cccs1 (stereo not drawn) [drawing 29/2-Pyridyl/H/H/S]
DDIT3 gene induction (DDIT3; Table 4a): − (− Indicates less than 2 fold induction)
BCL2 gene induction (BCL2; Table 4b): − (− Indicates less than 2 fold induction)
HMOX gene induction (HMOX; Table 4b): + (+ indicates a induction of greater than 2 fold)
GCLM gene induction (GCLM; Table 4a): + (+ indicates a induction of greater than 2 fold)
TUB1 gene induction (TUB1; Table 4a): − (− Indicates less than 2 fold induction)
HspA5 gene induction (HspA5; Table 4b): − (− Indicates less than 2 fold induction)
HSPA1a gene induction (HSPA1a; Table 4b): − (− Indicates less than 2 fold induction)
